Patent publication US9670227B2, “Thienopyrimidine derivatives, a process for their preparation and pharmaceutical compositions containing them” (LES LABORATOIRES SERVIER, priority 2013, dated 2017)
Read-outs that look alike come from different tables or passages of the source.

Legend:
Mcl-1 protein = Mcl-1 protein (UniProtKB primary accession number: Q07820) (Homo sapiens, UniProt Q07820); experiment: Inhibition of Mcl-1 by fluorescence polarisation, Method 1; type: binding; conditions: for IC50: read-out: IC50 (M) Mcl-1 FP
Sequence of Mcl-1 protein (Q07820 whole entry): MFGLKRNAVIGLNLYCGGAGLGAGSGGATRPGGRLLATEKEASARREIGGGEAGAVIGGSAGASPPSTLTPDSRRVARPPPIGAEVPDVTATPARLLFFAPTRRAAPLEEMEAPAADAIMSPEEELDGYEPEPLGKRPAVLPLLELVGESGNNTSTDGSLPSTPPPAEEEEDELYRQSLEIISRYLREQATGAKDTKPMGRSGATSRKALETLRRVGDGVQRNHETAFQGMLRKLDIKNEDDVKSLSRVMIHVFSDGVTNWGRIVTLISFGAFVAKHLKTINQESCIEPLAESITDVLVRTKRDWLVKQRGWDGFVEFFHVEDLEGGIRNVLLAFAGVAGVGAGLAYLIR
In short: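 FP competition, 11-point compound titration in 5% final DMSO; protein and labelled probe at 5 nM and 1 nM final in HEPES/NaCl/Tween 20 buffer, pH 7.4.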

[1] = system: H929 multiple myeloma tumour line; experiment: In vitro cytotoxicity, Microculture Tetrazolium Assay; type: cell-based; conditions: H929 cells, 48 hours exposure, MTT, read-out: IC50 (μM) MTT H929
Experimental: The cytotoxicity studies were carried out on the H929 multiple myeloma tumour line.
The cells are distributed onto microplates and exposed to the test compounds for 48 hours.

[2] = fluorescence polarisation test, Method 2 values are underlined in the patent (underlining not visible here)
[3] = fluorescence polarisation, Method 1, or Method 2

Row | IC50 (Mcl-1 protein; [2]) | IC50 (Mcl-1 protein; [3]) | percentage fluorescence polarisation inhibition, Mcl-1 FP (Mcl-1 protein; partial inhibitors, @ 10 uM test compound) | Compound | IC50 ([1]; Homo sapiens, NCI-H929, 48 h) | IC50 [1]
1 | 1.3e-08 M |  |  | COc1cc(-c2sc3ncnc(OC(Cc4ccccc4OCC4CCCO4)C(=O)O)c3c2-c2ccc(OCCN3CCN(C)CC3)c(Cl)c2C)ccc1F [Example 379, (2R)-2-{[(5Sa)-5-{3-chloro-2-methyl-4-[2-(4-methylpiperazin-1-yl)ethoxy]phenyl}-6-(4-fluoro-3-methoxyphenyl)thieno[2,3-d]pyrimidin-4-yl]oxy}-3-{2-[(2R)-tetrahydrofuran-2-ylmethoxy]phenyl}propanoic acid] | 0.174 µM | 
2 |  | 2.32e-09 M |  | COc1ccccc1Cn1nccc1COc1ccccc1CC(Oc1ncnc2sc(-c3ccc(F)cc3)c(-c3ccc(OCCN4CCN(C)CC4)c(Cl)c3C)c12)C(=O)O [Example 739, (2R)-2-{[(5Sa)-5-{3-chloro-2-methyl-4-[2-(4-methylpiperazin-1-yl)ethoxy]phenyl}-6-(4-fluorophenyl)thieno[2,3-d]pyrimidin-4-yl]oxy}-3-(2-{[1-(2-methoxybenzyl)-1H-pyrazol-5-yl]methoxy}phenyl)propanoic acid] | 0.093 µM | 
3 | 3.7e-08 M |  |  | CCc1sc2ncnc(OC(Cc3ccccc3)C(=O)O)c2c1-c1ccc(OCC(=O)N2CCCC2)c(Cl)c1C [Example 391, (2R)-2-[((5Sa)-5-{3-chloro-2-methyl-4-[2-oxo-2-(pyrrolidin-1-yl)ethoxy]phenyl}-6-ethylthieno[2,3-d]pyrimidin-4-yl)oxy]-3-phenylpropanoic acid] | 22.1 µM | 
4 |  | 9.48e-10 M |  | COc1ccccc1-c1nccc(COc2ccccc2CC(Oc2ncnc3sc(-c4ccc(F)cc4)c(-c4ccc(OCCN5CCNCC5)c(Cl)c4C)c23)C(=O)O)n1 [Example 744, (2R)-2-{[(5Sa)-5-{3-chloro-2-methyl-4-[2-(piperazin-1-yl)ethoxy]phenyl}-6-(4-fluorophenyl)thieno[2,3-d]pyrimidin-4-yl]oxy}-3-(2-{[2-(2-methoxyphenyl)pyrimidin-4-yl]methoxy}phenyl)propanoic acid] | 0.042 µM | 
5 | 2e-08 M |  |  | Cc1c(-c2c(-c3ccco3)sc3ncnc(OC(Cc4ccccc4OCc4cc(-c5ccccc5)nn4C)C(=O)O)c23)ccc(OCCN2CCN(C)CC2)c1Cl [Example 227, (2R)-2-{[(5Sa)-5-{3-chloro-2-methyl-4-[2-(4-methylpiperazin-1-yl)ethoxy]phenyl}-6-(furan-2-yl)thieno[2,3-d]pyrimidin-4-yl]oxy}-3-{2-[(1-methyl-3-phenyl-1H-pyrazol-5-yl)methoxy]phenyl}propanoic acid] | 0.192 µM | 
6 | 7.1e-09 M |  |  | COc1cc(-c2sc3ncnc(OC(Cc4ccccc4OCc4ccnc(C(F)(F)F)n4)C(=O)O)c3c2-c2ccc(OCCN3CCN(C)CC3)c(Cl)c2C)ccc1F [Example 382, (2R)-2-{[(5Sa)-5-{3-chloro-2-methyl-4-[2-(4-methylpiperazin-1-yl)ethoxy]phenyl}-6-(4-fluoro-3-methoxyphenyl)thieno[2,3-d]pyrimidin-4-yl]oxy}-3-(2-{[2-(trifluoromethyl)pyrimidin-4-yl]methoxy}phenyl)propanoic acid] | 0.033 µM | 
7 | 6.2e-09 M |  |  | CCCCCn1nccc1C(C)Oc1ccccc1CC(Oc1ncnc2sc(-c3ccc(F)cc3)c(-c3ccc(OCCN4CCN(C)CC4)c(Cl)c3C)c12)C(=O)O (single isomer, unassigned) [Example 5, (2R)-2-{[(5Sa)-5-{3-chloro-2-methyl-4-[2-(4-methylpiperazin-1-yl)ethoxy]phenyl}-6-(4-fluorophenyl)thieno[2,3-d]pyrimidin-4-yl]oxy}-3-{2-[(1R or S)-1-(1-pentyl-1H-pyrazol-5-yl)ethoxy]phenyl}propanoic acid] | 0.418 µM | 
8 | 1.5e-08 M |  |  | COc1c(C)cccc1CC(Oc1ncnc2sc(-c3ccco3)c(-c3ccc(OCCN4CCN(C)CC4)c(Cl)c3C)c12)C(=O)O [Example 351, (2R)-2-{[(5Sa)-5-{3-chloro-2-methyl-4-[2-(4-methylpiperazin-1-yl)ethoxy]phenyl}-6-(furan-2-yl)thieno[2,3-d]pyrimidin-4-yl]oxy}-3-(2-methoxy-3-methylphenyl)propanoic acid] | 0.526 µM | 
9 | 1e-08 M |  |  | Cc1c(-c2c(-c3ccco3)sc3ncnc(OC(Cc4ccccc4OC(C)C)C(=O)O)c23)ccc(OCCN2CCN(C)CC2)c1Cl [Example 210, (2R)-2-{[(5Sa)-5-{3-chloro-2-methyl-4-[2-(4-methylpiperazin-1-yl)ethoxy]phenyl}-6-(furan-2-yl)thieno[2,3-d]pyrimidin-4-yl]oxy}-3-[2-(propan-2-yloxy)phenyl]propanoic acid] | 0.406 µM | 
10 | 8e-09 M |  |  | Cc1c(-c2c(-c3ccc(F)cc3)sc3ncnc(OC(Cc4ccccc4OCc4ncncc4Br)C(=O)O)c23)ccc(OCCN2CCN(C)CC2)c1Cl [Example 101, (2R)-3-{2-[(5-bromopyrimidin-4-yl)methoxy]phenyl}-2-{[(5Sa)-5-{3-chloro-2-methyl-4-[2-(4-methylpiperazin-1-yl)ethoxy]phenyl}-6-(4-fluorophenyl)thieno[2,3-d]pyrimidin-4-yl]oxy}propanoic acid] | 0.398 µM | 
11 |  | 1.7e-08 M |  | COc1ccccc1CC(Oc1ncnc2sc(-c3cccc(C)c3)c(-c3ccc(OCCN4CCN(C)CC4)c(Cl)c3C)c12)C(=O)O [Example 546, (2R)-2-{[(5Sa)-5-{3-chloro-2-methyl-4-[2-(4-methylpiperazin-1-yl)ethoxy]phenyl}-6-(3-methylphenyl)thieno[2,3-d]pyrimidin-4-yl]oxy}-3-(2-methoxyphenyl)propanoic acid] | 0.416 µM | 
12 |  | 4.5e-08 M |  | CCc1sc2ncnc(OC(Cc3ccccc3)C(=O)O)c2c1-c1cc(N)c(OCCN2CCN(C)CC2)c(Cl)c1C [Example 437, (2R)-2-[((5Sa)-5-{5-amino-3-chloro-2-methyl-4-[2-(4-methylpiperazin-1-yl)ethoxy]phenyl}-6-ethylthieno[2,3-d]pyrimidin-4-yl)oxy]-3-phenylpropanoic acid] | 20.3 µM | 
13 |  | 3.8e-08 M |  | C#Cc1ccc(-c2sc3ncnc(OC(Cc4ccccc4OC)C(=O)O)c3c2-c2ccc(OCCN3CCN(C)CC3)c(Cl)c2C)o1 [Example 578, (2R)-2-{[(5Sa)-5-{3-chloro-2-methyl-4-[2-(4-methylpiperazin-1-yl)ethoxy]phenyl}-6-(5-ethynylfuran-2-yl)thieno[2,3-d]pyrimidin-4-yl]oxy}-3-(2-methoxyphenyl)propanoic acid] | 0.347 µM | 
14 |  | 8e-09 M |  | CCc1sc2ncnc(OC(Cc3ccccc3)C(=O)O)c2c1-c1ccc(OCCc2ccncc2)c(Cl)c1C [Example 397, (2R)-2-[((5Sa)-5-{3-chloro-2-methyl-4-[2-(pyridin-4-yl)ethoxy]phenyl}-6-ethylthieno[2,3-d]pyrimidin-4-yl)oxy]-3-phenylpropanoic acid] | 15.7 µM | 
15 | 4.3e-09 M |  |  | Cc1c(-c2c(-c3ccc(F)o3)sc3ncnc(OC(Cc4ccccc4OCc4ccnn4CC4CC4)C(=O)O)c23)ccc(OCCN2CCN(C)CC2)c1Cl [Example 186, (2R)-2-{[(5Sa)-5-{3-chloro-2-methyl-4-[2-(4-methylpiperazin-1-yl)ethoxy]phenyl}-6-(5-fluorofuran-2-yl)thieno[2,3-d]pyrimidin-4-yl]oxy}-3-(2-{[1-(cyclopropylmethyl)-1H-pyrazol-5-yl]methoxy}phenyl)propanoic acid] | 0.013 µM | 
16 |  |  | 74.85% @ 10 uM | CCOC(=O)[C@@H](Cc1ccccc1OCc1ccnc(OC)n1)Oc1ncnc2sc(-c3ccc(F)o3)c(-c3ccc(OCCN4CCN(C)CC4)c(Cl)c3C)c12 [Example 625, ethyl (2R)-2-{[(5Sa)-5-{3-chloro-2-methyl-4-[2-(4-methylpiperazin-1-yl)ethoxy]phenyl}-6-(5-fluorofuran-2-yl)thieno[2,3-d]pyrimidin-4-yl]oxy}-3-{2-[(2-methoxypyrimidin-4-yl)methoxy]phenyl}propanoate] |  | 0.62 µM
17 | 4.8e-09 M |  |  | Cc1c(-c2c(-c3ccc(F)cc3)sc3ncnc(OC(Cc4ccccc4OCc4ccnc(-c5ccoc5)n4)C(=O)O)c23)ccc(OCCN2CCN(C)CC2)c1Cl [Example 35, (2R)-2-{[(5Sa)-5-{3-chloro-2-methyl-4-[2-(4-methylpiperazin-1-yl)ethoxy]phenyl}-6-(4-fluorophenyl)thieno[2,3-d]pyrimidin-4-yl]oxy}-3-(2-{[2-(furan-3-yl)pyrimidin-4-yl]methoxy}phenyl)propanoic acid] | 0.027 µM | 
18 |  | 3.6e-09 M |  | COc1nccc(COc2ccccc2CC(Oc2ncnc3sc(-c4ccc(F)c(F)c4)c(-c4ccc(OCCN5CCN(C)CC5)c(Cl)c4C)c23)C(=O)O)n1 [Example 706, (2R)-2-{[(5Sa)-5-{3-chloro-2-methyl-4-[2-(4-methylpiperazin-1-yl)ethoxy]phenyl}-6-(3,4-difluorophenyl)thieno[2,3-d]pyrimidin-4-yl]oxy}-3-{2-[(2-methoxypyrimidin-4-yl)methoxy]phenyl}propanoic acid] | 0.04 µM | 
19 | 1.1e-08 M |  |  | Cc1c(-c2c(-c3ccco3)sc3ncnc(OC(Cc4ccccc4OCc4cnc(Cl)cn4)C(=O)O)c23)ccc(OCCN2CCN(C)CC2)c1Cl [Example 269, (2R)-2-{[(5Sa)-5-{3-chloro-2-methyl-4-[2-(4-methylpiperazin-1-yl)ethoxy]phenyl}-6-(furan-2-yl)thieno[2,3-d]pyrimidin-4-yl]oxy}-3-{2-[(5-chloropyrazin-2-yl)methoxy]phenyl}propanoic acid] | 0.069 µM | 
